# Measured values taken from paper PMC3147153 (Clinical cancer research : an official journal of the …, 2009).
# Where two headings read alike, the source gives them in different places.
# Tests used:
# CYP3A4 = details: in vitro; ref studies done by Ariad Pharmaceuticals; cited from earlier work
# [1] = Whole blood pharmacokinetics, LC-MS/MS, noncompartmental analysis; assay type: in vivo, patients; details: for half-life / AUC / Cmax / Vd / clearance: human, whole blood
# [2] = tested on: 4E-BP1 phosphorylated at Ser^65/Thr^70; assay: 4E-BP1 phosphorylation in peripheral blood mononuclear cells; assay type: in vivo, patients; details: PBMC, 7 days after infusion, all doses
# [3] = tested on: target lesions (solid tumors); assay: Tumor response by Response Evaluation Criteria in Solid Tumors; assay type: in vivo, patients
# CYP3A5 = details: in vitro; ref studies done by Ariad Pharmaceuticals; cited from earlier work
# [4] = in vivo
# Laboratory variables = assay type: in vivo; details: patients who received at least three doses; 95% CI −22.1 to −2.6
# xenografts = details: cited from earlier work
# [5] = i.v. daily for 5 days every 2 weeks; ref 14 (Mita et al.); cited from earlier work
# human tumor cell lines = details: cited from earlier work
# [6] = two multiple-dose toxicology studies in rats; ref nonclinical studies; cited from earlier work
# [7] = Phase I dose escalation: safety, tolerability, MTD, DLT and adverse events
# [8] = dose level 6.25 mg, 2 patients entered
# [9] = dose level 12.5 mg, 3 patients entered
# [10] = dose level 25 mg, 4 patients entered
# [11] = dose level 50 mg, 16 patients entered
# [12] = dose level 75 mg, 17 patients entered
# [13] = dose level 100 mg, 4 patients entered
smiles,measurement,setting,value
CO[C@H]1C[C@@H]2CC[C@@H](C)[C@@](O)(O2)C(=O)C(=O)N2CCCC[C@H]2C(=O)O[C@H]([C@H](C)C[C@@H]2CC[C@@H](OP(C)(C)=O)[C@H](OC)C2)CC(=O)[C@H](C)/C=C(\C)[C@@H](O)[C@@H](OC)C(=O)[C@H](C)C[C@H](C)/C=C/C=C/C=C/1C [deforolimus],metabolism by CYP3A4,CYP3A4,primarily metabolized by CYP3A4
same,dose proportionality of AUC,[1]; dose range 6.25 to 100 mg,increased less than proportionally with an increase in dose
same,dose proportionality of Cmax,[1]; dose range 6.25 to 100 mg,increased less than proportionally with an increase in dose
same,half-life,[1]; intravenous,2700 to 3120 min
same,AUC,"[1]; iv, 6.25 mg",3800 ng·h/mL
same,Cmax,"[1]; iv, 6.25 mg",329 ng/mL
same,Vd,"[1]; iv, 6.25 mg",80.3 L
same,clearance,"[1]; iv, 6.25 mg",28.3 mL/min
same,half-life,"[1]; iv, 6.25 mg",3130 min
same,AUC,"[1]; iv, 12.5 mg",5100 ng·h/mL
same,Cmax,"[1]; iv, 12.5 mg",394 ng/mL
same,Vd,"[1]; iv, 12.5 mg",111 L
same,clearance,"[1]; iv, 12.5 mg",45 mL/min
same,AUC,"[1]; iv, 25 mg",9000 ng·h/mL
same,Cmax,"[1]; iv, 25 mg",570 ng/mL
same,Vd,"[1]; iv, 25 mg",136 L
same,clearance,"[1]; iv, 25 mg",48.3 mL/min
same,half-life,"[1]; iv, 25 mg",2770 min
same,AUC,"[1]; iv, 50 mg",10700 ng·h/mL
same,Cmax,"[1]; iv, 50 mg",982 ng/mL
same,Vd,"[1]; iv, 50 mg",235 L
same,clearance,"[1]; iv, 50 mg",81.7 mL/min
same,half-life,"[1]; iv, 50 mg",2690 min
same,AUC,"[1]; iv, 75 mg",12700 ng·h/mL
same,Cmax,"[1]; iv, 75 mg",1200 ng/mL
same,Vd,"[1]; iv, 75 mg",323 L
same,clearance,"[1]; iv, 75 mg",107 mL/min
same,half-life,"[1]; iv, 75 mg",2840 min
same,AUC,"[1]; iv, 100 mg",13400 ng·h/mL
same,Cmax,"[1]; iv, 100 mg",1260 ng/mL
same,Vd,"[1]; iv, 100 mg",373 L
same,clearance,"[1]; iv, 100 mg",128 mL/min
same,half-life,"[1]; iv, 100 mg",2760 min
same,"clearance difference, greater in females, estimated from the model","[1]; regression model with dose and gender, SE 0.41",1.49 L/h
same,median inhibition of 4E-BP1 phosphorylation,[2],> 70%
same,patients with disease progression,"[3]; 34 evaluable, after two cycles",12 patients
same,patients with stable disease,"[3]; 34 evaluable, after two cycles",21 patients
same,patients with partial response,[3]; 34 patients evaluable for response,1 patient
same,"correlation r, AUC versus percent change in sum of target lesions","[3]; after two cycles, n = 32, P = 0.015",−0.43
same,"correlation r, dose versus percent change in sum of target lesions","[3]; after two cycles, n = 33, P = 0.28",−0.19
same,shrinkage in target lesions,"[3]; one patient with transitional cell carcinoma of the bladder, after two cycles",34%
same,metabolism by CYP3A5,CYP3A5,to a lesser extent
same,"Abdominal pain, number of adverse events, any grade",[4]; human,14
same,"Nausea, number of adverse events, any grade",[4]; human,26
same,"Rash, number of adverse events, any grade",[4]; human,22
same,incidence of anorexia,[4]; human,67%
same,incidence of diarrhea,[4]; human,50%
same,incidence of fatigue,[4]; human,76%
same,incidence of mucositis,[4]; human,63%
same,incidence of nausea,[4]; human,57%
same,patients who experienced an adverse event,[4]; human,46 patients
same,tolerability of the dose level,[4],intolerable
same,estimated slope of nadir platelet count versus dose,Laboratory variables,−12.3 × 10^3/μL per 10 mg increase i
same,effect on proliferation of xenografts,xenografts,inhibits proliferation
same,incidence of hypercholesterolemia,[5],28%
same,incidence of hyperglycemia,[5],28%
same,incidence of hypertriglyceridemia,[5],41%
same,effect on proliferation of human tumor cell lines,human tumor cell lines,inhibits proliferation
same,no effect dose level / severely toxic dose level,[6],neither a no effect dose level nor a severely toxic dose level was identified
same,"Abdominal pain, number of adverse events, any grade",[7]; 6.25 mg (n = 2),0
same,"Anemia, number of adverse events, any grade",[7]; 6.25 mg (n = 2),0
same,"Anorexia, number of adverse events, any grade",[7]; 6.25 mg (n = 2),2
same,"Constipation, number of adverse events, any grade",[7]; 6.25 mg (n = 2),1
same,"Cough, number of adverse events, any grade",[7]; 6.25 mg (n = 2),0
same,"Diarrhea, number of adverse events, any grade",[7]; 6.25 mg (n = 2),1
same,"Dysgeusia, number of adverse events, any grade",[7]; 6.25 mg (n = 2),1
same,"Fatigue, number of adverse events, any grade",[7]; 6.25 mg (n = 2),2
same,"Hyperglycemia, number of adverse events, any grade",[7]; 6.25 mg (n = 2),0
same,"Hypophosphatemia, number of adverse events, any grade",[7]; 6.25 mg (n = 2),0
same,"Mucosal inflammation, number of adverse events, any grade",[7]; 6.25 mg (n = 2),0
same,"Anemia, number of adverse events, any grade",[7]; 12.5 mg (n = 3),1
same,"Anorexia, number of adverse events, any grade",[7]; 12.5 mg (n = 3),2
same,"Constipation, number of adverse events, any grade",[7]; 12.5 mg (n = 3),2
same,"Cough, number of adverse events, any grade",[7]; 12.5 mg (n = 3),0
same,"Diarrhea, number of adverse events, any grade",[7]; 12.5 mg (n = 3),2
same,"Dysgeusia, number of adverse events, any grade",[7]; 12.5 mg (n = 3),0
same,"Fatigue, number of adverse events, any grade",[7]; 12.5 mg (n = 3),2
same,"Hyperglycemia, number of adverse events, any grade",[7]; 12.5 mg (n = 3),0
same,"Hypophosphatemia, number of adverse events, any grade",[7]; 12.5 mg (n = 3),0
same,"Mucosal inflammation, number of adverse events, any grade",[7]; 12.5 mg (n = 3),1
same,"Abdominal pain, number of adverse events, any grade",[7]; 25 mg (n = 4),0
same,"Anemia, number of adverse events, any grade",[7]; 25 mg (n = 4),1
same,"Anorexia, number of adverse events, any grade",[7]; 25 mg (n = 4),4
same,"Constipation, number of adverse events, any grade",[7]; 25 mg (n = 4),2
same,"Cough, number of adverse events, any grade",[7]; 25 mg (n = 4),0
same,"Diarrhea, number of adverse events, any grade",[7]; 25 mg (n = 4),2
same,"Dysgeusia, number of adverse events, any grade",[7]; 25 mg (n = 4),0
same,"Fatigue, number of adverse events, any grade",[7]; 25 mg (n = 4),3
same,"Hyperglycemia, number of adverse events, any grade",[7]; 25 mg (n = 4),0
same,"Hypophosphatemia, number of adverse events, any grade",[7]; 25 mg (n = 4),0
same,"Mucosal inflammation, number of adverse events, any grade",[7]; 25 mg (n = 4),1
same,"Anemia, number of adverse events grade 3 or 4",[7]; 50 mg (n = 16),1
same,"Anemia, number of adverse events, any grade",[7]; 50 mg (n = 16),5
same,"Dysgeusia, number of adverse events, any grade",[7]; 50 mg (n = 16),3
same,"Hyperglycemia, number of adverse events grade 3 or 4",[7]; 50 mg (n = 16),2
same,"Hyperglycemia, number of adverse events, any grade",[7]; 50 mg (n = 16),5
same,"Hypophosphatemia, number of adverse events grade 3 or 4",[7]; 50 mg (n = 16),3
same,"Hypophosphatemia, number of adverse events, any grade",[7]; 50 mg (n = 16),4
same,patients discontinued from the study due to adverse events,[7]; 50 mg dose level,3 patients
same,"Abdominal pain, number of adverse events grade 3 or 4",[7]; 75 mg (n = 17),1
same,"Abdominal pain, number of adverse events, any grade",[7]; 75 mg (n = 17),5
same,"Cough, number of adverse events, any grade",[7]; 75 mg (n = 17),3
same,"Hyperglycemia, number of adverse events grade 3 or 4",[7]; 75 mg (n = 17),4
same,"Hyperglycemia, number of adverse events, any grade",[7]; 75 mg (n = 17),5
same,"Mucosal inflammation, number of adverse events, any grade",[7]; 75 mg (n = 17),12
same,patients discontinued from the study due to adverse events,[7]; 75 mg dose level,3 patients
same,patients who developed grade 1 to 2 mucositis,[7]; 75 mg dose level (17 patients),Twelve
same,"Abdominal pain, number of adverse events grade 3 or 4",[7]; 100 mg (n = 4),1 (1)
same,"Abdominal pain, number of adverse events, any grade",[7]; 100 mg (n = 4),1 (1)
same,"Anemia, number of adverse events, any grade",[7]; 100 mg (n = 4),1
same,"Anorexia, number of adverse events, any grade",[7]; 100 mg (n = 4),3
same,"Constipation, number of adverse events, any grade",[7]; 100 mg (n = 4),3
same,"Cough, number of adverse events, any grade",[7]; 100 mg (n = 4),1
same,"Diarrhea, number of adverse events, any grade",[7]; 100 mg (n = 4),2
same,"Dysgeusia, number of adverse events, any grade",[7]; 100 mg (n = 4),1
same,"Fatigue, number of adverse events, any grade",[7]; 100 mg (n = 4),3
same,"Hyperglycemia, number of adverse events, any grade",[7]; 100 mg (n = 4),0
same,"Hypophosphatemia, number of adverse events grade 3 or 4",[7]; 100 mg (n = 4),1 (1)
same,"Hypophosphatemia, number of adverse events, any grade",[7]; 100 mg (n = 4),1 (1)
same,"Mucosal inflammation, number of adverse events grade 3 or 4",[7]; 100 mg (n = 4),1
same,"Mucosal inflammation, number of adverse events, any grade",[7]; 100 mg (n = 4),4
same,patients who required dosing delays and/or dose reduction secondary to mucositis,[7]; 100 mg dose level,3 of 4
same,patients who experienced mucositis,[7]; 100 mg dose level (4 patients),4 patients
same,patients with mucositis grade ≥3,[7]; 100 mg dose level (4 patients),1 patients
same,patients who experienced an adverse event grade ≥3,[7]; all 46 patients,70%
same,patients who required interruption of treatment or dose reduction on at least one occasion,[7]; all 46 patients,Twenty-eight
same,deaths thought to be related to deforolimus,[7]; all patients,no deaths thought to be related to deforolimus
same,patients with serious adverse events,[7]; all patients,22 patients
same,serious adverse events,[7]; all patients,Thirty-two
same,incidence of hypercholesterolemia,"[7]; all patients, weekly schedule",7%
same,incidence of hyperglycemia,"[7]; all patients, weekly schedule",22%
same,incidence of hypertriglyceridemia,"[7]; all patients, weekly schedule",9%
same,No. patients requiring dose interruptions or reductions,[7]; [8],0
same,No. patients requiring dose reductions,[7]; [8],0
same,"No. patients requiring dose interruptions or reductions, at least possibly related to deforolimus",[7]; dose level 12.5 mg,0
same,No. patients requiring dose interruptions or reductions,[7]; [9],2
same,No. patients requiring dose reductions,[7]; [9],0
same,"No. patients requiring dose interruptions or reductions, at least possibly related to deforolimus",[7]; dose level 25 mg,0
same,No. patients requiring dose interruptions or reductions,[7]; [10],3
same,No. patients requiring dose reductions,[7]; [10],0
same,"No. patients requiring dose interruptions or reductions, at least possibly related to deforolimus",[7]; dose level 50 mg,5
same,No. patients requiring dose interruptions or reductions,[7]; [11],8
same,No. patients requiring dose reductions,[7]; [11],3
same,"No. patients requiring dose interruptions or reductions, at least possibly related to deforolimus",[7]; dose level 75 mg,9
same,No. patients requiring dose interruptions or reductions,[7]; [12],12
same,No. patients requiring dose reductions,[7]; [12],2
same,"No. patients requiring dose interruptions or reductions, at least possibly related to deforolimus",[7]; dose level 100 mg,3 (3)
same,No. patients requiring dose interruptions or reductions,[7]; [13],3 (3)
same,No. patients requiring dose reductions,[7]; [13],2
same,main dose-limiting toxicity (DLT),[7]; i.v. once weekly,mucositis
same,maximum tolerated dose (MTD),"[7]; i.v. over 30 min every 7 days, flat dosing",75 mg
same,"treatment discontinuations thought to be possibly, probably or definitely related to the study drug",[7]; of six patients with treatment discontinued,4 patients
same,factor of increase in odds of more severe mucositis per 10 mg increase in dose,"[7]; proportional odds model, univariate, 95% CI 1.21–2.07",1.58
